System: eNOS promoter
Assay: Activation of eNOS transcription (eNOS promoter-luciferase reporter gene assay)
Assay type: cell-based
Conditions: human endothelial cell line stably transfected with eNOS promoter-luciferase construct; 18 h incubation; determined graphically; read-out: EC50 values of transcription induction ratios (TIR)
Experimental: Activation of eNOS transcription was measured as described in detail by Li et al., “Activation of protein kinase C alpha and/or epsilon enhances transcription of the human endothelial nitric oxide synthase gene”, Mol. Pharmacol. 53 (1998) 630. Briefly, a 3.5 kB long fragment 5′ of the starting codon of the eNOS gene was cloned, sequenced and cloned in firefly luciferase expression plasmids to monitor activation of the eNOS promoter by reporter gene activity. A human endothelial cell line stable transfected and expressing this promoter-reporter construct was used for compound testing. Cells were incubated for 18 h with the compounds.
All compounds were dissolved in sterile dimethyl sulfoxide (DMSO). A final concentration of 0.5% DMSO in complete medium was allowed. Induction of reporter gene expression in these cells was measured using a standard luciferase assay system (Promega, Cat. No. E150) according to the manufacturer's instructions. Luciferase induction in cells incubated with compounds were compared to those incubated with solvent alone. The ratio of both activities (transcription induction ratio, TIR) was plotted as a function of compound concentration. […] EC50 values of transcription induction ratios as a function of compound concentration were determined graphically.

Structure (SMILES) | EC50 [nM]
Nc1ccc2nc(-c3ccc(F)cc3)cn2n1 [Example 7, 2-(4-Fluoro-phenyl)-imidazo[1,2-b]pyridazin-6-ylamine] | < 500
Fc1ccc(-c2cn3nc(Cl)ccc3n2)cc1 [Example 8, 6-Chloro-2-(4-fluoro-phenyl)-imidazo[1,2-b]pyridazine] | < 500

Reference: patent US8044050B2, “Imidazo[1,2-a]azines and their use as pharmaceuticals” (Sanofi-Aventis, priority 2007, dated 2011)
